Laboratory results reported in US20070172422A1, “Exponential pattern recognition based cellular targeting compositions, methods and anticancer applications” (priority 2001, published 2007).
pIC50: −log10 of the molar value.

How the values were obtained:
[1] = times more potent than doxorubicin; cited from earlier work
[2] = tested on: cells including adriamycin resistant tumor lines; settings: cited from earlier work
PSMA = PSMA (Homo sapiens, UniProt Q04609); assay: inhibition of the enzymatic activity of PSMA; format: biochemical
Sequence of PSMA (Q04609 whole entry, species assumed): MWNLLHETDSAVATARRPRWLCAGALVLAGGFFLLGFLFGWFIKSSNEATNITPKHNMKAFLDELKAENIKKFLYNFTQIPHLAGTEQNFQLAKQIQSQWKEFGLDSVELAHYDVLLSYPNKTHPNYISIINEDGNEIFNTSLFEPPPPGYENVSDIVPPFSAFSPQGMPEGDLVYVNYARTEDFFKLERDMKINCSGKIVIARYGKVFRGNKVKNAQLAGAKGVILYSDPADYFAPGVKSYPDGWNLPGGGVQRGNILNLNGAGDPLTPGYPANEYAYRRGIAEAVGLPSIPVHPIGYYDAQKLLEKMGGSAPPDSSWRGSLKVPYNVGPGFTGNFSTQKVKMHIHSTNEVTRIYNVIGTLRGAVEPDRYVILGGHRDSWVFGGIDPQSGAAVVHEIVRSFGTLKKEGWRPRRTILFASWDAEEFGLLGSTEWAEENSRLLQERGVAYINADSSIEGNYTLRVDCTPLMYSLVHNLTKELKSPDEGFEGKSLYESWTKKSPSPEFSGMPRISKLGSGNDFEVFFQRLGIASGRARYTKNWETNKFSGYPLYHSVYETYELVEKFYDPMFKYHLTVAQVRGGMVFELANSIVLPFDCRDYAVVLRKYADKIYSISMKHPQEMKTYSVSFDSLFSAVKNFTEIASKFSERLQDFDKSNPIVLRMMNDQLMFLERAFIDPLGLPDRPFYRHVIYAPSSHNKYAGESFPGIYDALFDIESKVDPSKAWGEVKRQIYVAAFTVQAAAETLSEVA
Experimental: The ability of Compound 8 to inhibit the enzymatic activity of PSMA (and consequently to bind to the enzyme) was evaluated using the method described previously in Ser. No. 09/712,465 Nov. 15, 2000 Glazier, Arnold. “Selective Cellular Targeting: Multifunctional Delivery Vehicles, Multifunctional Prodrugs, Use as Neoplastic Drugs. The IC50 for Compound 8 was 8 nanomolar.

Compound: COc1cccc2c1C(=O)c1c(O)c3c(c(O)c1C2=O)C[C@@](O)(C(=O)CO)C[C@@H]3O[C@H]1C[C@H](N2C=CCC2)[C@H](O)[C@H](C)O1 [2-pyrrolinodoxorubicin]
- potency relative to doxorubicin [1]: 500-1000 times

Compound: CO[C@@H]1[C@H](O)C[C@@H](O[C@@H]2C[C@H](Oc3cc4cc5c(c(O)c4c(O)c3C)C(=O)[C@@H](O[C@H]3C[C@@H](O[C@H]4C[C@@H](O[C@H]6C[C@](C)(O)[C@@H](OC(C)=O)[C@H](C)O6)[C@H](O)[C@@H](C)O4)[C@H](O)[C@@H](C)O3)[C@H]([C@H](OC)C(=O)[C@@H](O)[C@@H](C)O)C5)O[C@H](C)[C@@H]2OC(C)=O)O[C@@H]1C [Chromomycin A3]
- concentrations at which cytotoxic [2]: subnanomolar concentrations

Compound: COc1ccc(C(=O)NCCOCCOCCOCCNC(=O)CCC(NC(=O)NC(CCC(=O)O)C(=O)O)C(=O)O)cc1 (stereo not drawn) [Compound 8]
- pIC50 (PSMA): 8.10
